The text below walks through data of US8633134B2, “Substituted amidine compounds for combating animal pests” (priority 2008, dated 2014).

Usually mortality stands for the share of the test organisms that died. A lower mortality goes with more survivors.

Common to all, as to type: in vivo
Data set [1] concerns Cotton Aphid (Aphis gossypii). The data set can be described thus: Cotton aphid foliar spray test. Conditions: 120 h, after 5 days, in comparison with untreated controls. From the text: (§1) The active compounds were formulated in cyclohexanone as a 10,000 ppm solution supplied in tubes. The tubes were inserted into an automated electrostatic sprayer equipped with an atomizing nozzle and they served as stock solutions for which lower dilutions were made in 50% acetone:50% water (v/v). A nonionic surfactant (Kinetic®) was included in the solution at a volume of 0.01% (v/v).
Cotton plants at the cotyledon stage were infested with aphids prior to treatment by placing a heavily infested leaf from the main aphid colony on top of each cotyledon. Aphids were allowed to transfer overnight to accomplish an infestation of 80-100 aphids per plant and the host leaf was removed. The infested plants were then sprayed by an automated electrostatic plant sprayer equipped with an atomizing spray nozzle. The plants were dried in the sprayer fume hood, removed from the sprayer, and then maintained in a growth room under fluorescent lighting in a 24-hr photoperiod at 25° C. and 20-40% relative humidity. Aphid mortality on the treated plants, relative to mortality on untreated control plants, was determined after 5 days.

For data set [2], the system named is Tobacco Budworm (Heliothis virescens). The data set can be described thus: Tobacco budworm cotton plant foliar spray test. Conditions: 96 h. How it is done:
as §1
Cotton plants were grown 2 plants to a pot and selected for treatment at the cotyledon stage. Test solutions were sprayed onto the foliage by an automated electrostatic plant sprayer equipped with an atomizing spray nozzle. The plants were dried in the sprayer fume hood and then removed from the sprayer. Each pot was placed into perforated plastic bags with a zip closure. About 10 to 11 budworm larvae were placed into the bag and the bags zipped closed. Test plants were maintained in a growth room at about 25° C. and about 20-40% relative humidity for 4 days, avoiding direct exposure to fluorescent light (24 hour photoperiod) to prevent trapping of heat inside the bags. Mortality and reduced feeding were assessed 4 days after treatment, compared to untreated control plants.

Data set [3] deals with Cowpea Aphid (Aphis craccivora). Put plainly: Cowpea aphid spray test on potted cowpea plants. The following applies: population reduction assessed after 24, 72, and 120 hours, in comparison with untreated controls. How it is done: (§2) The active compound is dissolved at the desired concentration in a mixture of 1:1 (vol:vol) distilled water:acteon. The test solution is prepared at the day of use and in general at concentrations of […].
Potted cowpea plants colonized with approximately 100-150 aphids of various stages were sprayed after the pest population has been recorded. Population reduction was assessed after 24, 72, and 120 hours.

Data set [4] deals with Southern Armyworm (Spodoptera eridania). Put plainly: Southern armyworm lima bean foliar spray test. The following applies: 96 h. The method, then: as §1
Lima bean plants (variety Sieva) were grown 2 plants to a pot and selected for treatment at the 1st true leaf stage. Test solutions were sprayed onto the foliage by an automated electrostatic plant sprayer equipped with an atomizing spray nozzle. The plants were dried in the sprayer fume hood and then removed from the sprayer. Each pot was placed into perforated plastic bags with a zip closure. About 10 to 11 armyworm larvae were placed into the bag and the bags zipped closed. Test plants were maintained in a growth room at about 25° C. and about 20-40% relative humidity for 4 days, avoiding direct exposure to fluorescent light (24 hour photoperiod) to prevent trapping of heat inside the bags. Mortality and reduced feeding were assessed 4 days after treatment, compared to untreated control plants.

In data set [5] the test system is Orchid Thrips (Dichromothrips corbetti). The data set can be described thus: Orchid thrips floral-immersion test. The following applies: 96 h. How it is done:
Dichromothrips corbetti adults used for bioassay are obtained from a colony maintained continuously under laboratory conditions. For testing purposes, the test compound is diluted to a concentration of 300 ppm (wt compound: vol diluent) in a 1:1 mixture of acetone:water (vol:vol), plus 0.01% vol/vol Kinetic® surfactant.
Thrips potency of each compound is evaluated by using a floral-immersion technique. Plastic petri dishes are used as test arenas. All petals of individual, intact orchid flowers are dipped into treatment solution and allowed to dry. Treated flowers are placed into individual petri dishes along with 10-15 adult thrips. The petri dishes are then covered with lids. All test arenas are held under continuous light and a temperature of about 28° C. for duration of the assay. After 4 days, the numbers of live thrips are counted on each flower, and along inner walls of each petri dish. The level of thrips mortality is extrapolated from pre-treatment thrips numbers.

The subject of data set [6] is Mediterranean Fruitfly (Ceratitis capitata). The data set can be described thus: Mediterranean fruitfly microtiter plate diet test. The following applies: 120 h. How it is done: For evaluating control of Mediterranean fruitfly (Ceratitis capitata) the test unit consisted of microtiter plates containing an insect diet and 50-80 C. capitata eggs. The compounds were formulated using a solution containing 75% v/v water and 25% v/v DMSO. Different concentrations of formulated compounds were sprayed onto the insect diet at 5 μl, using a custom built micro atomizer, at two replications.
After application, microtiter plates were incubated at about 28±1° C. and about 80±5% relative humidity for 5 days. Egg and larval mortality was then visually assessed.

The subject of data set [7] is Boll Weevil (Anthonomus grandis). Put plainly: Boll weevil microtiter plate diet test. The following applies: 120 h. How it is done:
For evaluating control of boll weevil (Anthonomus grandis) the test unit consisted of 24-well-microtiter plates containing an insect diet and 20-30 A. grandis eggs.
The compounds were formulated using a solution containing 75% v/v water and 25% v/v DMSO. Different concentrations of formulated compounds were sprayed onto the insect diet at 20 μl, using a custom built micro atomizer, at two replications. After application, microtiter plates were incubated at about 23±1° C. and about 50±5% relative humidity for 5 days. Egg and larval mortality was then visually assessed.

Data set [8] relates to Diamond Back Moth (Plutella xylostella). Put plainly: Diamond back moth leaf dip test. The following applies: foliar, 120 h. The method, then: as §2
Leaves of Chinese cabbage were dipped in test solution and air-dried. Treated leaves were placed in petri dished lined with moist filter paper. Mortality was recorded 24, 72, and 120 hours after treatment.

In data set [9] the test system is Vetch Aphid (Megoura viciae). Put plainly: Vetch aphid leaf disk microtiter plate test. Conditions: foliar, 120 h. The method, then: For evaluating control of vetch aphid (Megoura viciae) through contact or systemic means the test unit consisted of 24-well-microtiter plates containing broad bean leaf disks.
The compounds were formulated using a solution containing 75% v/v water and 25% v/v DMSO. Different concentrations of formulated compounds were sprayed onto the leaf disks at 2.5 μl, using a custom built micro atomizer, at two replications. After application, the leaf disks were air-dried and 5-8 adult aphids placed on the leaf disks inside the microtiter plate wells. The aphids were then allowed to suck on the treated leaf disks and incubated at about 23±1° C. and about 50±5% relative humidity for 5 days. Aphid mortality and fecundity was then visually assessed.

In data set [10] the test system is Silverleaf Whitefly (Bemisia argentifolii). The data set can be described thus: Silverleaf whitefly cotton plant spray test. Conditions: 72 h, 3 days after treatment, in comparison with untreated controls.
From the text: as §1
Cotton plants at the cotyledon stage (one plant per pot) were sprayed by an automated electrostatic plant sprayer equipped with an atomizing spray nozzle. The plants were dried in the sprayer fume hood and then removed from the sprayer. Each pot was placed into a plastic cup and about 10 to 12 whitefly adults (approximately 3-5 days old) were introduced. The insects were collected using an aspirator and a nontoxic Tygon® tubing connected to a barrier pipette tip. The tip, containing the collected insects, was then gently inserted into the soil containing the treated plant, allowing insects to crawl out of the tip to reach the foliage for feeding. Cups were covered with a reusable screened lid. Test plants were maintained in a growth room at about 25° C. and about 20-40% relative humidity for 3 days, avoiding direct exposure to fluorescent light (24 hour photoperiod) to prevent trapping of heat inside the cup. Mortality was assessed 3 days after treatment, compared to untreated control plants.

For data set [11], the system named is yellowfever mosquito larvae (Aedes aegypti). The data set can be described thus: Larval mosquito water treatment assay. The following applies: 120 h, 5 DAT (days after treatment), first tier test, in comparison with untreated controls. How it is done:
The assay was conducted in 6-well polystyrene plates using one plate per treatment rate. Stock solutions were prepared at 100 and 1000 ppm. Screen rates were at 1 and 10 ppm. Distilled water was added to each well, control wells were treated with acetone. Temephos (Abate technical) was used as the standard at 0.1 ppm. Ten late thirdinstar yellowfever mosquito larvae (Aedes aegypti) in water were added to each well. One drop of liver powder solution (6 g in 100 ml distilled water) was added to each well as a food source daily. Plates were maintained at 22-25° C. and 25-50% RH (relative humidity) and observed daily for dead larvae and pupae at 1, 2, 3, and 5 days after treatment. Dead larvae and all pupae were removed daily. Mortality was defined as an insect incapable of coordinated movement when agitated.

Data set [12] relates to Western Flower Thrips (Frankliniella occidentalis). The data set can be described thus: Western flower thrips glass vial / leaf disc test. The following applies: 300 ppm; 2 DAT; in comparison with untreated controls. The method, then: Serial dilutions of each technical grade AI were made in pure acetone. 0.5 ml of the treatment solution was deposited into the bottom of a glass vial (scintillation vial). The cap was screwed back onto the vial and inverted for about five seconds. The cap was subsequently removed and the vial laid on its side and rolled constantly, on a hot dog roller, until all the acetone had flashed off and the inner surface of the vial was dry. Cotton leave discs were also dipped simultaneously into the treatment solutions and allowed to dry. After the vials were dried, the leave discs are placed into the vials to serve as a food/water source for the thrips. Each treatment was replicated 5-fold.
Western flower thrips were aspirated into the vials, approximately 5 larvae or adults/vial. Following treatment application the vials were held in a holding room under fluorescent light and constant 26° C. Thrips mortality was assessed at 2 DAT (days after treatment), counting all thrips both dead and alive.

`Cc1cc(C2=NOC(c3cc(Cl)cc(Cl)c3)(C(F)(F)F)C2)ccc1C(=NCc1ccccn1)NO` (stereo not shown) [Compound 1-8, 4-[5-(3,5-Dichloro-phenyl)-5-trifluoromethyl-4,5-dihydro-isoxazol-3-yl]-N-hydroxy-2-methyl-N′-pyridin-2-ylmethyl-benzamidine]: the mortality at 300 ppm in data set [1], in data set [3], in data set [4], in data set [5] and in data set [8] was at least 75% throughout. For the same compound, the mortality at 2500 ppm in data set [2], in data set [6], in data set [7] and in data set [9] was at least 75% in each case.

Regarding `Cc1nc(-c2ccc(C3=NOC(c4cc(Cl)cc(Cl)c4)(C(F)(F)F)C3)cc2CC(F)(F)F)no1` (stereo not shown) [Compound 9-4, 3-{4-[5-(3,5-Dichloro-phenyl)-5-trifluoromethyl-4,5-dihydro-isoxazol-3-yl]-2-trifluoroethyl-phenyl}-5-methyl-[1,2,4]oxadiazole], the mortality at 2500 ppm in data set [2], in data set [6] and in data set [7] was at least 75% each time. Further, in [4], the mortality at 300 ppm was at least 75%.

Turning to `Cc1nc(-c2ccc(C3=NOC(c4cc(Cl)cc(Cl)c4)(C(F)(F)F)C3)cc2C)no1` (stereo not shown) [Compound 9-2, 3-{4-[5-(3,5-Dichloro-phenyl)-5-trifluoromethyl-4,5-dihydro-isoxazol-3-yl]-2-methyl-phenyl}-5-methyl-[1,2,4]oxadiazole], the mortality at 2500 ppm in data set [2], in data set [6] and in data set [7] was at least 75% each time. The mortality at 300 ppm in data set [4] and in [8] was at least 75% throughout.

With `Cc1cc(C2=NOC(c3cc(Cl)cc(Cl)c3)(C(F)(F)F)C2)ccc1C(=NCC(F)(F)F)NC(=O)CO` (stereo not shown) [Compound 1-7, 4-[5-(3,5-Dichloro-phenyl)-5-trifluoromethyl-4,5-dihydro-isoxazol-3-yl]-N-hydroxyacetyl-2-methyl-N′-(2,2,2-trifluoro-ethyl)-benzamidine], the mortality at 2500 ppm in data set [2], in [6] and in data set [7] was at least 75% each time. The mortality at 300 ppm in data set [4], in data set [5] and in data set [8] was at least 75% each time.

`CN=C(NO)c1ccc(C2=NOC(c3cc(Cl)cc(Cl)c3)(C(F)(F)F)C2)cc1C` (stereo not shown) [Compound 1-1, 4-[5-(3,5-Dichloro-phenyl)-5-trifluoromethyl-4,5-dihydro-isoxazol-3-yl]-N-hydroxy-2,N′-dimethyl-benzamidine]: the mortality at 300 ppm in data set [1], in [10], in data set [4], in data set [5] and in [8] was at least 75% each time. Further, the mortality at 2500 ppm in [2], in data set [6], in [7] and in data set [9] was at least 75% throughout. Further, the mortality at 1 ppm in data set [11] is at least 75%.

As for `Cc1cc(C2=NOC(c3cc(Cl)cc(Cl)c3)(C(F)(F)F)C2)ccc1C(=NO)N(C)C` (stereo not shown) [Compound 1-2], in data set [12], the mortality result is reported as “at least 75%”.

Consider `CC(=O)N(Cc1ccccn1)C(C(=O)C=NO)c1ccc(C2=NOC(c3cc(Cl)cc(Cl)c3)(C(F)(F)F)C2)cc1C` (stereo not shown) [Compound 1-10, N-{{4-[5-(3,5-dichloro-phenyl)-5-trifluoromethyl-4,5-dihydro-isoxazol-3-yl]-2-methyl-phenyl}-hydroxyiminoacetyl-methyl}-N-pyridin-2-ylmethyl-acetamide], for which the mortality at 2500 ppm in [2], in data set [6], in data set [7] and in [9] was at least 75% in each case. Further, the mortality at 300 ppm in [3], in data set [4], in data set [5] and in data set [8] was at least 75% in each case.
